Molecular target: T1, IRAK-4 (Homo sapiens, UniProt Q9NWZ3)
T1 sequence (Q9NWZ3 1-460): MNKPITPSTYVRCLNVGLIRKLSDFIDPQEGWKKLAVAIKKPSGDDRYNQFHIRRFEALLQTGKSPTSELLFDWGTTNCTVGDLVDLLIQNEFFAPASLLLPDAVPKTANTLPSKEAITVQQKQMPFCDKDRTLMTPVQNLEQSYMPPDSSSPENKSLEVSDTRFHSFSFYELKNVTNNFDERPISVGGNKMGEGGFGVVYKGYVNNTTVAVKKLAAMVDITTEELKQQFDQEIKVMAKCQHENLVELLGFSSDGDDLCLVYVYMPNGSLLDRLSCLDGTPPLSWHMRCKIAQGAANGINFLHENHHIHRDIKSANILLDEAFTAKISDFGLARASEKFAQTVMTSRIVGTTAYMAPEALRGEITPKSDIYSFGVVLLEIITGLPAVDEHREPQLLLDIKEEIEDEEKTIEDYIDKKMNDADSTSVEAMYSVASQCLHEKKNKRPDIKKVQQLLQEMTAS
Assay: IRAK-4 ELISA, PBMC degradation
Format: cell-based
Set-up: endogenous in cells; host or cells: PBMC
Details: treated overnight
Procedure: Reagents: Human IRAK-4 Matched Antibody Pair Kit (Abcam ab218182) and ELISA Accessory Pack (Abcam ab210905).
Cell Treatment and Lysis:
1. OCI-Ly10: 200,000 cells are seeded at 1×10^6/ml in 96-well U-bottom plates 200 ul per well, treated with compound the same day. Incubate overnight. 2. PBMC: 800,000 cells are seeded at 2×10^6/ml in 96-well U-bottom deep-well plates, 400 ul per well, treated with compound the same day. Incubate overnight.
Cell lysate is collected and analyzed by ELISA for IRAK-4 levels.

Structure (SMILES) | DC50 [nM] | Dmax [%] | PBMC DC90 | PBMC Dmax
CC(C)Oc1cc2c(cc1NC(=O)c1cnn3cccnc13)CN(C1CCN(CCOCCOc3ccc4c(c3)CN(C3CCC(=O)NC3=O)C4=O)CC1)C2=O (stereo not drawn) [Example 2] | < 1 | ≥ 90 | 2 nM | –
CC(C)Oc1cc2c(cc1NC(=O)c1cnn3cccnc13)CN(C1CCN(CCOc3ccc4c(c3)CN(C3CCC(=O)NC3=O)C4=O)CC1)C2=O (stereo not drawn) [Example 3] | ≥ 10 | 80 to 90 | 3 nM | –
COc1cc(CCN2CCC(N3Cc4cc(NC(=O)c5cnn6cccnc56)c(OC(C)C)cc4C3=O)CC2)cc2c1C(=O)N(C1CCC(=O)NC1=O)C2 (stereo not drawn) [Example 11] | 1 to 5 | ≥ 90 | C (C represents a DC90 value ≥25.0 nM and <50 nM) | –
COc1cc(N2CC(CN3CCC(N4Cc5cc(NC(=O)c6cnn7cccnc67)c(OC(C)C)cc5C4=O)CC3)C2)cc2c1C(=O)N(C1CCC(=O)NC1=O)C2=O (stereo not drawn) [Example 14] | < 1 | ≥ 90 | A (A represents a DC90 value <10.0 nM) | –
CC(C)Oc1cc2c(cc1NC(=O)c1cnn3cccnc13)CN(C1CCN(CCC3(F)CN(c4ccc5c(c4)C(=O)N(C4CCC(=O)NC4=O)C5=O)C3)CC1)C2=O (stereo not drawn) [Example 15] | < 1 | 80 to 90 | A (A represents a DC90 value <10.0 nM) | –
CC(C)Oc1cc2c(cc1NC(=O)c1cnn3cccnc13)CN(C[C@@H](F)C1CCN(CC3CN(c4ccc5c(c4)CN(C4CCC(=O)NC4=O)C5=O)C3)CC1)C2=O (stereo partly drawn) [Example 16] | < 1 | ≥ 90 | A (A represents a DC90 value <10.0 nM) | –
CC(C)Oc1cc2c(cc1NC(=O)c1cnn3cccnc13)CN(C[C@@H](F)C1CN(CC3CCN(c4ccc5c(c4)CN(C4CCC(=O)NC4=O)C5=O)CC3)C1)C2=O (stereo partly drawn) [Example 17] | < 1 | 80 to 90 | A (A represents a DC90 value <10.0 nM) | –
CC(C)Oc1cc2c(cc1NC(=O)c1cnn3cccnc13)CN(C[C@@H](F)C1CCN(CC3CCN(c4ccc5c(c4)C(=O)N(C4CCC(=O)NC4=O)C5=O)CC3)CC1)C2=O (stereo partly drawn) [Example 18] | < 1 | ≥ 90 | A (A represents a DC90 value <10.0 nM) | –
CC(C)Oc1cc2c(cc1NC(=O)c1cnn3cccnc13)CN(C[C@@H](F)C1CCN(CC3CCN(c4ccc5c(c4)CN(C4CCC(=O)NC4=O)C5=O)CC3)CC1)C2=O (stereo partly drawn) [Example 20] | < 1 | ≥ 90 | A (A represents a DC90 value <10.0 nM) | –
COc1cc(N2CC(CN3CCC(N4Cc5cc(NC(=O)c6cnn7cccnc67)c(OC(C)C)cc5C4=O)CC3)C2)cc2c1C(=O)N(C1CCC(=O)NC1=O)C2 (stereo not drawn) [Example 21] | < 1 | ≥ 90 | A (A represents a DC90 value <10.0 nM) | –
CC(C)Oc1cc2c(cc1NC(=O)c1cnn3cccnc13)CN(C1CCC(N3CCC(c4ccc5c(c4)C(=O)N(C4CCC(=O)NC4=O)C5=O)CC3)CC1)C2=O (stereo not drawn) [Example 25] | 1 to 5 | ≥ 90 | A (A represents a DC90 value <10.0 nM) | –
O=C1CCC(N2C(=O)c3ccc(N4CCC(CN5CCC(N6Cc7cc(NC(=O)c8cnn9cccnc89)c(OC8CC8)cc7C6=O)CC5)CC4)cc3C2=O)C(=O)N1 (stereo not drawn) [Example 27] | < 1 | ≥ 90 | A (A represents a DC90 value <10.0 nM) | –
O=C1CCC(N2Cc3cc(N4CCC(CN5CCC(N6Cc7cc(NC(=O)c8cnn9cccnc89)c(OC8CC8)cc7C6=O)CC5)CC4)ccc3C2=O)C(=O)N1 (stereo not drawn) [Example 28] | < 1 | ≥ 90 | A (A represents a DC90 value <10.0 nM) | –
O=C1CCC(N2Cc3cc(N4CC(N5CCC(N6Cc7cc(NC(=O)c8cnn9cccnc89)c(N8CCC(N9CCC9)CC8)cc7C6=O)CC5)C4)ccc3C2=O)C(=O)N1 (stereo not drawn) [Example 39] | 5 to 10 | ≥ 90 | C (C represents a DC90 value ≥25.0 nM and <50 nM) | –
CC(C)Oc1cc2c(cc1NC(=O)c1cnn3cccnc13)CN(C1CCN(CC(F)(F)C3CN(c4ccc5c(c4)C(=O)N(C4CCC(=O)NC4=O)C5=O)C3)CC1)C2=O (stereo not drawn) [Example 40] | 5 to 10 | 80 to 90 | D (D represents a DC90 value ≥50 nM) | –
CC(C)Oc1cc2c(cc1NC(=O)c1cnn3cccnc13)CN(C1CCN(CC3(O)CN(c4ccc5c(c4)C(=O)N(C4CCC(=O)NC4=O)C5=O)C3)CC1)C2=O (stereo not drawn) [Example 61] | < 1 | ≥ 90 | A (A represents a DC90 value <10.0 nM) | –

Structure (SMILES) | DC50 [nM] | Dmax [%] | PBMC DC90 | PBMC Dmax
CC(C)Oc1cc2c(cc1NC(=O)c1cnn3cccnc13)CN([C@H]1CC[C@H](OC3CCN(c4ccc5c(c4)C(=O)N(C4CCC(=O)NC4=O)C5=O)CC3)CC1)C2=O (stereo partly drawn) [Example 65] | 1 to 5 | ≥ 90 | A (A represents a DC90 value <10.0 nM) | –
CC(C)Oc1cc2c(cc1NC(=O)c1cnn3cccnc13)CN([C@H]1CC[C@H](N3CC4(CN(c5ccc6c(c5)C(=O)N(C5CCC(=O)NC5=O)C6=O)C4)C3)CC1)C2=O (stereo partly drawn) [Example 68] | < 1 | – | A (A represents a DC90 value <10.0 nM) | A (A represents a Dmax value ≥90)
CC(C)Oc1cc2c(cc1NC(=O)c1cnn3cccnc13)CN(C[C@@H](F)C1CCN(CC3CN(c4ccc5c(c4)C(=O)N(C4CCC(=O)NC4=O)C5=O)C3)CC1)C2=O (stereo partly drawn) [Example 70] | < 1 | ≥ 90 | A (A represents a DC90 value <10.0 nM) | –
CC(C)Oc1cc2c(cc1NC(=O)c1cnn3cccnc13)CN(C1CCN(C(=O)C3CN(c4ccc5c(c4)C(=O)N(C4CCC(=O)NC4=O)C5=O)C3)CC1)C2=O (stereo not drawn) [Example 71] | 1 to 5 | ≥ 90 | B (B represents a DC90 value ≥10.0 nM and <25.0 nM) | –
CC(C)Oc1cc2c(cc1NC(=O)c1cnn3cccnc13)CN(C1CCN(CC3(C)CN(c4ccc5c(c4)C(=O)N(C4CCC(=O)NC4=O)C5=O)C3)CC1)C2=O (stereo not drawn) [Example 72] | < 1 | 80 to 90 | A (A represents a DC90 value <10.0 nM) | –
CC(C)Oc1cc2c(cc1NC(=O)c1cnn3ccc(N4CCOCC4)nc13)CN(C1CCN(CC3CN(c4ccc5c(c4)C(=O)N(C4CCC(=O)NC4=O)C5=O)C3)CC1)C2=O (stereo not drawn) [Example 73] | 5 to 10 | 70 to 80 | D (D represents a DC90 value ≥50 nM) | –
CC(C)Oc1cc2c(cc1NC(=O)c1cnn3ccc(N4CCOCC4)nc13)CN(C1CCN(CC3CCN(c4ccc5c(c4)C(=O)N(C4CCC(=O)NC4=O)C5=O)CC3)CC1)C2=O (stereo not drawn) [Example 74] | 5 to 10 | 80 to 90 | D (D represents a DC90 value ≥50 nM) | –
CC(C)Oc1cc2c(cc1NC(=O)c1cnn3cccnc13)CN(C1CCN(CCN(C)c3ccc4c(c3)C(=O)N(C3CCC(=O)NC3=O)C4=O)CC1)C2=O (stereo not drawn) [Example 75] | 1 to 5 | ≥ 90 | B (B represents a DC90 value ≥10.0 nM and <25.0 nM) | –
CC(C)Oc1cc2c(cc1NC(=O)c1cnn3cccnc13)CN(C1CCN(C[C@H]3CCCN(c4ccc5c(c4)C(=O)N(C4CCC(=O)NC4=O)C5=O)C3)CC1)C2=O (stereo partly drawn) [Example 76] | 1 to 5 | ≥ 90 | B (B represents a DC90 value ≥10.0 nM and <25.0 nM) | –
CC(C)Oc1cc2c(cc1NC(=O)c1cnn3cccnc13)CN(C1CCN(C[C@@H]3CCCN(c4ccc5c(c4)C(=O)N(C4CCC(=O)NC4=O)C5=O)C3)CC1)C2=O (stereo partly drawn) [Example 77] | 1 to 5 | ≥ 90 | B (B represents a DC90 value ≥10.0 nM and <25.0 nM) | –
CC(C)Oc1cc2c(cc1NC(=O)c1cnn3cccnc13)CN(C1CCN(C[C@@H]3CN(c4ccc5c(c4)C(=O)N(C4CCC(=O)NC4=O)C5=O)CCO3)CC1)C2=O (stereo partly drawn) [Example 78] | < 1 | ≥ 90 | A (A represents a DC90 value <10.0 nM) | –
CC(C)Oc1cc2c(cc1NC(=O)c1cnn3cccnc13)CN(C1CCN(C[C@H]3CN(c4ccc5c(c4)C(=O)N(C4CCC(=O)NC4=O)C5=O)CCO3)CC1)C2=O (stereo partly drawn) [Example 79] | < 1 | ≥ 90 | A (A represents a DC90 value <10.0 nM) | –
CC(C)Oc1cc2c(cc1NC(=O)c1cnn3cccnc13)CN(C1CCN(C[C@@H]3CCN(c4ccc5c(c4)C(=O)N(C4CCC(=O)NC4=O)C5=O)C3)CC1)C2=O (stereo partly drawn) [Example 80] | 1 to 5 | ≥ 90 | A (A represents a DC90 value <10.0 nM) | –
CC(C)Oc1cc2c(cc1NC(=O)c1cnn3cccnc13)CN(C1CCN(CC3CCC4(CC3)CN(c3ccc5c(c3)C(=O)N(C3CCC(=O)NC3=O)C5=O)C4)CC1)C2=O (stereo not drawn) [Example 81] | < 1 | ≥ 90 | A (A represents a DC90 value <10.0 nM) | –
CC(C)Oc1cc2c(cc1NC(=O)c1cnn3cccnc13)CN(C1CCN(C[C@H]3CCN(c4ccc5c(c4)C(=O)N(C4CCC(=O)NC4=O)C5=O)C3)CC1)C2=O (stereo partly drawn) [Example 83] | 1 to 5 | ≥ 90 | A (A represents a DC90 value <10.0 nM) | –
O=C1CCC(N2C(=O)c3ccc(N4CC(CN5CCC(N6Cc7cc(NC(=O)c8cnn9cccnc89)c(OC8CC8)cc7C6=O)CC5)C4)cc3C2=O)C(=O)N1 (stereo not drawn) [Example 84] | < 1 | ≥ 90 | A (A represents a DC90 value <10.0 nM) | –

Source: patent publication US20230099344A1, “COMPOUNDS AND METHODS FOR THE TARGETED DEGRADATION OF IRAK-4” (Arvinas Operations, Inc., priority 2021, published 2023)
